{"source": "patent US12492173B2", "about": "“Herbicidal substituted N-tetrazolyl aryl carboxamides” (Bayer Aktiengesellschaft, priority 2019, dated 2025)"}
{"system": "Echinochloa crus-galli", "experiment": "Pre-emergence herbicidal action, ECHCG", "type": "in vivo", "conditions": "dosage 320 g/ha, scored visually after 3 weeks vs untreated controls (100% = plants have died)", "method_in_brief": "(§1)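 Pre-emergence soil spray over sandy loam-covered seeds; greenhouse 3 weeks; % visual damage (0% = control, 100% = dead).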", "units": {"herbicidal activity ECHCG": "%"}}
{"smiles": "Cn1nnnc1NC(=O)c1ccc(C(F)(F)F)c(C[S+](C)[O-])c1F", "note": "(stereo not drawn) [Example 1-243]", "herbicidal activity ECHCG": 100}
{"smiles": "CCCn1nnnc1NC(=O)c1ccc(C(F)(F)F)c(C[S+](C)[O-])c1Cl", "note": "(stereo not drawn) [Example 3-297]", "herbicidal activity ECHCG": 100}
{"smiles": "CCSCc1c(C(F)(F)F)ccc(C(=O)Nc2nnnn2C)c1C", "note": "[Example 1-86]", "herbicidal activity ECHCG": 100}
{"smiles": "CCCn1nnnc1NC(=O)c1ccc(C(F)(F)F)c(C[S+](C)[O-])c1Br", "note": "(stereo not drawn) [Example 3-381]", "herbicidal activity ECHCG": 100}
{"smiles": "CCCn1nnnc1NC(=O)c1ccc(C(F)F)c(CSC)c1Cl", "note": "[Example 3-320]", "herbicidal activity ECHCG": 100}
{"smiles": "CSCc1c(C(F)(F)F)ccc(C(=O)Nc2nnnn2C)c1SC", "note": "[Example 1-161]", "herbicidal activity ECHCG": 100}
{"smiles": "CCCn1nnnc1NC(=O)c1ccc(C(F)(F)F)c(CS(=O)(=O)CC)c1Br", "note": "[Example 3-385]", "herbicidal activity ECHCG": 100}
{"smiles": "CCn1nnnc1NC(=O)c1ccc(C(F)F)c(CSC)c1C", "note": "[Example 2-107]", "herbicidal activity ECHCG": 100}
{"smiles": "CCCn1nnnc1NC(=O)c1ccc(C(F)(F)F)c(CS(C)(=O)=O)c1OC", "note": "[Example 3-136]", "herbicidal activity ECHCG": 100}
{"system": "Veronica persica", "experiment": "Pre-emergence herbicidal action, VERPE", "type": "in vivo", "conditions": "dosage 320 g/ha, scored visually after 3 weeks vs untreated controls (100% = plants have died)", "method_in_brief": "as §1", "units": {"herbicidal activity VERPE": "%"}}
{"smiles": "Cn1nnnc1NC(=O)c1ccc(C(F)(F)F)c(C[S+](C)[O-])c1F", "note": "(stereo not drawn) [Example 1-243]", "herbicidal activity VERPE": 100}
{"smiles": "CCCn1nnnc1NC(=O)c1ccc(C(F)(F)F)c(C[S+](C)[O-])c1Cl", "note": "(stereo not drawn) [Example 3-297]", "herbicidal activity VERPE": 100}
{"smiles": "CCSCc1c(C(F)(F)F)ccc(C(=O)Nc2nnnn2C)c1C", "note": "[Example 1-86]", "herbicidal activity VERPE": 100}
{"smiles": "CCCn1nnnc1NC(=O)c1ccc(C(F)(F)F)c(C[S+](C)[O-])c1Br", "note": "(stereo not drawn) [Example 3-381]", "herbicidal activity VERPE": 100}
{"smiles": "CCCn1nnnc1NC(=O)c1ccc(C(F)F)c(CSC)c1Cl", "note": "[Example 3-320]", "herbicidal activity VERPE": 100}
{"smiles": "CSCc1c(C(F)(F)F)ccc(C(=O)Nc2nnnn2C)c1SC", "note": "[Example 1-161]", "herbicidal activity VERPE": 100}
{"smiles": "CCCn1nnnc1NC(=O)c1ccc(C(F)(F)F)c(CS(=O)(=O)CC)c1Br", "note": "[Example 3-385]", "herbicidal activity VERPE": 100}
{"smiles": "CCn1nnnc1NC(=O)c1ccc(C(F)F)c(CSC)c1C", "note": "[Example 2-107]", "herbicidal activity VERPE": 100}
{"smiles": "CCCn1nnnc1NC(=O)c1ccc(C(F)(F)F)c(CS(C)(=O)=O)c1OC", "note": "[Example 3-136]", "herbicidal activity VERPE": 100}
{"system": "Abutilon theophrasti", "experiment": "Post-emergence herbicidal action, ABUTH", "type": "in vivo", "parameters": "key: % herbicidal action vs untreated; 100 = plants died, 0 = like control", "conditions": "Dosage 80 g/ha", "method_in_brief": "(§2)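 Greenhouse post-emergence test: weeds sown in sandy loam were sprayed once at one leaf, 2 to 3 weeks from sowing, with aqueous WP or EC preparations carrying 0.2% wetting agent. Effect is scored visually after about 3 weeks.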"}
{"smiles": "Cn1nnnc1NC(=O)c1ccc(C(F)(F)F)c(C[S+](C)[O-])c1F", "note": "(stereo not drawn) [Example 1-243]", "herbicidal action ABUTH": 90}
{"smiles": "CCCn1nnnc1NC(=O)c1ccc(C(F)F)c(CSC)c1Cl", "note": "[Example 3-320]", "herbicidal action ABUTH": 100}
{"smiles": "CSCc1c(C(F)(F)F)ccc(C(=O)Nc2nnnn2C)c1SC", "note": "[Example 1-161]", "herbicidal action ABUTH": 90}
{"smiles": "CCCn1nnnc1NC(=O)c1ccc(C(F)(F)F)c(CS(=O)(=O)CC)c1Br", "note": "[Example 3-385]", "herbicidal action ABUTH": 100}
{"smiles": "CCn1nnnc1NC(=O)c1ccc(C(F)F)c(CSC)c1C", "note": "[Example 2-107]", "herbicidal action ABUTH": 90}
{"smiles": "CCCn1nnnc1NC(=O)c1ccc(C(F)(F)F)c(CS(C)(=O)=O)c1OC", "note": "[Example 3-136]", "herbicidal action ABUTH": 100}
{"system": "Abutilon theophrasti", "experiment": "Post-emergence herbicidal action, ABUTH", "type": "in vivo", "parameters": "key: % herbicidal action vs untreated; 100 = plants died, 0 = like control", "conditions": "post-emergence, dosage 80 g/ha", "method_in_brief": "as §2", "units": {"herbicidal action ABUTH": "%"}}
{"smiles": "CCCn1nnnc1NC(=O)c1ccc(C(F)(F)F)c(C[S+](C)[O-])c1Cl", "note": "(stereo not drawn) [Example 3-297]", "herbicidal action ABUTH": 80}
{"smiles": "CCSCc1c(C(F)(F)F)ccc(C(=O)Nc2nnnn2C)c1C", "note": "[Example 1-86]", "herbicidal action ABUTH": 80}
{"smiles": "CCCn1nnnc1NC(=O)c1ccc(C(F)(F)F)c(C[S+](C)[O-])c1Br", "note": "(stereo not drawn) [Example 3-381]", "herbicidal action ABUTH": 90}
{"system": "Amaranthus retroflexus", "experiment": "Post-emergence herbicidal action, AMARE", "type": "in vivo", "parameters": "key: % herbicidal action vs untreated; 100 = plants died, 0 = like control", "conditions": "Dosage 80 g/ha", "method_in_brief": "as §2"}
{"smiles": "Cn1nnnc1NC(=O)c1ccc(C(F)(F)F)c(C[S+](C)[O-])c1F", "note": "(stereo not drawn) [Example 1-243]", "herbicidal action AMARE": 90}
{"smiles": "CCCn1nnnc1NC(=O)c1ccc(C(F)F)c(CSC)c1Cl", "note": "[Example 3-320]", "herbicidal action AMARE": 80}
{"smiles": "CSCc1c(C(F)(F)F)ccc(C(=O)Nc2nnnn2C)c1SC", "note": "[Example 1-161]", "herbicidal action AMARE": 100}
{"smiles": "CCCn1nnnc1NC(=O)c1ccc(C(F)(F)F)c(CS(=O)(=O)CC)c1Br", "note": "[Example 3-385]", "herbicidal action AMARE": 90}
{"smiles": "CCn1nnnc1NC(=O)c1ccc(C(F)F)c(CSC)c1C", "note": "[Example 2-107]", "herbicidal action AMARE": 90}
{"smiles": "CCCn1nnnc1NC(=O)c1ccc(C(F)(F)F)c(CS(C)(=O)=O)c1OC", "note": "[Example 3-136]", "herbicidal action AMARE": 100}
{"system": "Amaranthus retroflexus", "experiment": "Post-emergence herbicidal action, AMARE", "type": "in vivo", "parameters": "key: % herbicidal action vs untreated; 100 = plants died, 0 = like control", "conditions": "post-emergence, dosage 80 g/ha", "method_in_brief": "as §2", "units": {"herbicidal action AMARE": "%"}}
{"smiles": "CCCn1nnnc1NC(=O)c1ccc(C(F)(F)F)c(C[S+](C)[O-])c1Cl", "note": "(stereo not drawn) [Example 3-297]", "herbicidal action AMARE": 100}
{"smiles": "CCSCc1c(C(F)(F)F)ccc(C(=O)Nc2nnnn2C)c1C", "note": "[Example 1-86]", "herbicidal action AMARE": 80}
{"smiles": "CCCn1nnnc1NC(=O)c1ccc(C(F)(F)F)c(C[S+](C)[O-])c1Br", "note": "(stereo not drawn) [Example 3-381]", "herbicidal action AMARE": 90}
{"system": "Echinochloa crus-galli", "experiment": "Post-emergence herbicidal action, ECHCG", "type": "in vivo", "parameters": "key: % herbicidal action vs untreated; 100 = plants died, 0 = like control", "conditions": "Dosage 80 g/ha", "method_in_brief": "as §2"}
{"smiles": "Cn1nnnc1NC(=O)c1ccc(C(F)(F)F)c(C[S+](C)[O-])c1F", "note": "(stereo not drawn) [Example 1-243]", "herbicidal action ECHCG": 100}
{"smiles": "CCCn1nnnc1NC(=O)c1ccc(C(F)F)c(CSC)c1Cl", "note": "[Example 3-320]", "herbicidal action ECHCG": 100}
{"smiles": "CSCc1c(C(F)(F)F)ccc(C(=O)Nc2nnnn2C)c1SC", "note": "[Example 1-161]", "herbicidal action ECHCG": 90}
{"smiles": "CCCn1nnnc1NC(=O)c1ccc(C(F)(F)F)c(CS(=O)(=O)CC)c1Br", "note": "[Example 3-385]", "herbicidal action ECHCG": 100}
{"smiles": "CCn1nnnc1NC(=O)c1ccc(C(F)F)c(CSC)c1C", "note": "[Example 2-107]", "herbicidal action ECHCG": 90}
{"smiles": "CCCn1nnnc1NC(=O)c1ccc(C(F)(F)F)c(CS(C)(=O)=O)c1OC", "note": "[Example 3-136]", "herbicidal action ECHCG": 100}
{"system": "Echinochloa crus-galli", "experiment": "Post-emergence herbicidal action, ECHCG", "type": "in vivo", "parameters": "key: % herbicidal action vs untreated; 100 = plants died, 0 = like control", "conditions": "post-emergence, dosage 80 g/ha", "method_in_brief": "as §2", "units": {"herbicidal action ECHCG": "%"}}
{"smiles": "CCCn1nnnc1NC(=O)c1ccc(C(F)(F)F)c(C[S+](C)[O-])c1Cl", "note": "(stereo not drawn) [Example 3-297]", "herbicidal action ECHCG": 80}
{"smiles": "CCSCc1c(C(F)(F)F)ccc(C(=O)Nc2nnnn2C)c1C", "note": "[Example 1-86]", "herbicidal action ECHCG": 80}
{"smiles": "CCCn1nnnc1NC(=O)c1ccc(C(F)(F)F)c(C[S+](C)[O-])c1Br", "note": "(stereo not drawn) [Example 3-381]", "herbicidal action ECHCG": 90}
{"system": "Veronica persica", "experiment": "Post-emergence herbicidal action, VERPE", "type": "in vivo", "parameters": "key: % herbicidal action vs untreated; 100 = plants died, 0 = like control", "conditions": "Dosage 80 g/ha", "method_in_brief": "as §2"}
{"smiles": "Cn1nnnc1NC(=O)c1ccc(C(F)(F)F)c(C[S+](C)[O-])c1F", "note": "(stereo not drawn) [Example 1-243]", "herbicidal action VERPE": 100}
{"smiles": "CCCn1nnnc1NC(=O)c1ccc(C(F)F)c(CSC)c1Cl", "note": "[Example 3-320]", "herbicidal action VERPE": 100}
{"smiles": "CSCc1c(C(F)(F)F)ccc(C(=O)Nc2nnnn2C)c1SC", "note": "[Example 1-161]", "herbicidal action VERPE": 100}
{"smiles": "CCCn1nnnc1NC(=O)c1ccc(C(F)(F)F)c(CS(=O)(=O)CC)c1Br", "note": "[Example 3-385]", "herbicidal action VERPE": 100}
{"smiles": "CCn1nnnc1NC(=O)c1ccc(C(F)F)c(CSC)c1C", "note": "[Example 2-107]", "herbicidal action VERPE": 100}
{"smiles": "CCCn1nnnc1NC(=O)c1ccc(C(F)(F)F)c(CS(C)(=O)=O)c1OC", "note": "[Example 3-136]", "herbicidal action VERPE": 100}
{"system": "Veronica persica", "experiment": "Post-emergence herbicidal action, VERPE", "type": "in vivo", "parameters": "key: % herbicidal action vs untreated; 100 = plants died, 0 = like control", "conditions": "post-emergence, dosage 80 g/ha", "method_in_brief": "as §2", "units": {"herbicidal action VERPE": "%"}}
{"smiles": "CCCn1nnnc1NC(=O)c1ccc(C(F)(F)F)c(C[S+](C)[O-])c1Cl", "note": "(stereo not drawn) [Example 3-297]", "herbicidal action VERPE": 100}
{"smiles": "CCSCc1c(C(F)(F)F)ccc(C(=O)Nc2nnnn2C)c1C", "note": "[Example 1-86]", "herbicidal action VERPE": 90}
{"smiles": "CCCn1nnnc1NC(=O)c1ccc(C(F)(F)F)c(C[S+](C)[O-])c1Br", "note": "(stereo not drawn) [Example 3-381]", "herbicidal action VERPE": 100}
